These are literature values, as cited in patent US11708332B2, “Human plasma kallikrein inhibitors” (BioCryst Pharmaceuticals, Inc., priority 2014, dated 2023).

Data set [1] has as its system hereditary angioedema (HAE).
Data set [2] has as its system lipopolysaccharide (LPS)- or bacterial-induced sepsis. The note with it: LPS- or bacterial-induced sepsis in animals.
The test system of data set [3] is middle cerebral artery occlusion (MCAO). The note with it: mouse model of MCAO.

Take `NC(N)=NCCC[C@@H](N)C(=O)N[C@@H](CCCN=C(N)N)C(=O)N1CCC[C@H]1C(=O)N1C[C@H](O)C[C@H]1C(=O)NCC(=O)N[C@@H](Cc1cccs1)C(=O)N[C@@H](CO)C(=O)N1Cc2ccccc2C[C@@H]1C(=O)N1[C@H](C(=O)N[C@@H](CCCN=C(N)N)C(=O)O)C[C@@H]2CCCC[C@@H]21` [Icatibant]: the “effectiveness in treating HAE” value in data set [1] (HAE) is “effective”. On to H-D-Pro-Phe-Arg-chloromethylketone, for which the lesions result in data set [2] is listed as “reduce”.

As to ecallantide [DX-88], in data set [1] (patients with HAE), the “edema in patients with hereditary angioedema (HAE)” value is given as “alleviates edema”.

B1: Cl-inhibitor: "Cl-inhibitor reduced infarct size in a mouse model of middle cerebral artery occlusion (MCAO)" (protein, UniProt P05155 23-500, looked up)
Plasma protease C1 inhibitor: NPNATSSSSQDPESLQDRGEGKVATTVISKMLFVEPILEVSSLPTTNSTTNSATKITANTTDEPTTQPTTEPTTQPTIQPTQPTTQLPTDSPTQPTTGSFCPGPVTLCSDLESHSTEAVLGDALVDFSLKLYHAFSAMKKVETNMAFSPFSIASLLTQVLLGAGENTKTNLESILSYPKDFTCVHQALKGFTTKGVTSVSQIFHSPDLAIRDTFVNASRTLYSSSPRVLSNNSDANLELINTWVAKNTNNKISRLLDSLPSDTRLVLLNAIYLSAKWKTTFDPKKTRMEPFHFKNSVIKVPMMNSKKYPVAHFIDQTLKAKVGQLQLSHNLSLVILVPQNLKHRLEDMEQALSPSVFKAIMEKLEMSKFQPTLLTLPRIKVTTSQDMLSIMEKLEFFDFSYDLNLCGLTEDPDLQVSAMQHQTVLELTETGVEAAAASAISVARTLLVFEVQQPFLFVLWDQQHKFPVFMGRVYDPRA
For the molecule B1, the infarct size result in data set [3] was “reduced”.

B2: C1-inhibitor: "a physiological inhibitor (C1-inhibitor)" (protein, UniProt P05155 23-500, looked up)
Plasma protease C1 inhibitor: B1 Plasma protease C1 inhibitor
B2: the lesions entry in data set [2] is listed as “reduce”.
